Laboratory results: US20230413824A1, “AGROCHEMICAL COMPOSITION COMPRISING 3-SUBSTITUTED PHENYLAMIDINE COMPOUNDS AND USE THEREOF” (PI INDUSTRIES LIMITED, priority 2020, published 2023)
Where two headings read alike, the source gives them in different places.

Assays:
Assay type in all cases: in vivo
Septoria nodorum = assay: Parastagonospora nodorum/Septoria nodorum/Stagnospora nodorum test in wheat (preventive, glasshouse); conditions: single compound
Procedure: The single compounds or compound combinations were dissolved in 2% DMSO/Acetone and then mixed with water containing emulsifier to a calibrated spray volume of 50 mL. The spray solutions were poured into spray bottles for further applications.
To test the preventive activity of compounds, healthy young wheat plants, raised in the greenhouse, were sprayed with the single compound or mixture preparation at the stated application rates inside the spray cabinets using hollow cone nozzles. One day after treatment, the plants were inoculated with a suspension containing 2.8×10^6 Stagnospora nodorum inoculum. The inoculated plants were then kept in a greenhouse chamber at 22-25° C. temperature and 90-100% relative humidity for disease expression.
A visual assessment of the performance of the compounds and respective compound combinations was carried out by rating the disease severity (0-100% scale) on treated plants 3, 7 and 10 days after application. Efficacy (% control) of the compounds was calculated by comparing the disease rating in the treatment with the one of the untreated control. The compounds were also assessed for their plant compatibility by recording symptoms like necrosis, chlorosis & stunting. The results are shown for the compound of formula (I-1) to (I-5) in Table E1-E5.

Botrytis cinerea = Botrytis cinerea test in tomato (preventive, glasshouse); conditions: single compound; for pest or weed control at 0.05 ppm: Conc. 0.05 ppm
Pyricularia oryzae = assay: whole plant or invertebrate; conditions: for Observed Efficacy: single compound, preventive spray, rice
Erysiphe cichoracearum = Erysiphe cichoracearum test in cucumber (preventive, glasshouse); conditions: single compound
Phakopsora pachyrhizi = Phakopsora pachyrhizi test in soybean (preventive, glasshouse); conditions: single compound
Alternaria solani = Alternaria solani test in tomato (preventive, glasshouse)
[1] = Pyricularia oryzae, read-out: Observed Efficacy
[2] = Parastagonospora nodorum, 0.05 ppm, read-out: Observed Efficacy (%)
[3] = Parastagonospora nodorum, 0.1 ppm, read-out: Observed Efficacy (%)
[4] = Botrytis cinerea, preventive spray on tomato, % control vs untreated, read-out: Observed Efficacy (%)
[5] = Botrytis cinerea, Conc. 0.1 ppm, preventive spray on tomato, % control vs untreated, read-out: Observed Efficacy (%)
[6] = Golovinomyces cichoracearum, 0.05 ppm, cucumber, preventive, read-out: Observed Efficacy (%)
[7] = Golovinomyces cichoracearum, 0.1 ppm, cucumber, preventive, read-out: Observed Efficacy (%)
[8] = 0.05 ppm, preventive spray on cucumber
[9] = 0.1 ppm, preventive spray on cucumber
[10] = Phakopsora pachyrhizi, 0.05 ppm, preventive spray on soybean, read-out: Observed Efficacy (%)
[11] = Phakopsora pachyrhizi, 0.1 ppm, preventive spray on soybean, read-out: Observed Efficacy (%)
[12] = Conc. 0.05 ppm, soybean, preventive, Table D4
[13] = Conc. 0.05 ppm, soybean, preventive, Table D5
[14] = Conc. 0.1 ppm, soybean, preventive, Table D4
[15] = Conc. 0.1 ppm, soybean, preventive, Table D5
[16] = Alternaria solani, single compound, 0.05 ppm, preventive spray, read-out: Observed Efficacy (%)
[17] = Alternaria solani, single compound, 0.1 ppm, preventive spray, read-out: Observed Efficacy (%)
[18] = Table B4, single compound, Conc. 0.05 ppm, preventive
[19] = Table B4, single compound, Conc. 0.1 ppm, preventive
[20] = single compound, 0.05 ppm, preventive
[21] = single compound, 0.1 ppm, preventive
[22] = Alternaria solani, single compound, Conc. 0.05 ppm, preventive spray, read-out: Observed Efficacy
[23] = Alternaria solani, single compound, Conc. 0.1 ppm, preventive spray, read-out: Observed Efficacy
[24] = Table B3, single compound, Conc. 0.05 ppm, preventive
[25] = Table B3, single compound, Conc. 0.1 ppm, preventive

In the case of CCN(C)C=Nc1cc(F)cc(Cc2cccc(C)c2)c1C [Compound (I-5), N-ethyl-N′-(5-fluoro-2-methyl-3-(3-methylbenzyl)phenyl)-N-methylformimidamide], the pest or weed control at 1 ppm (Septoria nodorum; Parastagonospora nodorum, 1 ppm, read-out: Observed Efficacy (%)) is reported as 23%, the pest or weed control at 5 ppm (Septoria nodorum; Parastagonospora nodorum, 5 ppm, read-out: Observed Efficacy (%)) is reported as 33% and the pest or weed control at 20 ppm (Septoria nodorum; Parastagonospora nodorum, 20 ppm, read-out: Observed Efficacy (%)) is reported as 40%. The pest or weed control at 1 ppm (Botrytis cinerea; Table F5, Conc. 1 ppm, Botrytis cinerea in tomato, preventive, read-out: Observed Efficacy (%)) was 53%, the pest or weed control at 5 ppm (Botrytis cinerea; Table F5, Conc. 5 ppm, Botrytis cinerea in tomato, preventive, read-out: Observed Efficacy (%)) was 63% and the pest or weed control at 20 ppm (Botrytis cinerea; Table F5, Conc. 20 ppm, Botrytis cinerea in tomato, preventive, read-out: Observed Efficacy (%)) was 73%. The pest or weed control at 1 ppm (Pyricularia oryzae; [1]) was 23%, the pest or weed control at 5 ppm (Pyricularia oryzae; [1]) was 37% and the pest or weed control at 20 ppm (Pyricularia oryzae; [1]) was 47%. It also gave a pest or weed control at 1 ppm (Erysiphe cichoracearum; Golovinomyces cichoracearum, 1 ppm, preventive spray on cucumber, read-out: Observed Efficacy (%)) of 23%, a pest or weed control at 5 ppm (Erysiphe cichoracearum; Golovinomyces cichoracearum, 5 ppm, preventive spray on cucumber, read-out: Observed Efficacy (%)) of 47% and a pest or weed control at 20 ppm (Erysiphe cichoracearum; Golovinomyces cichoracearum, 20 ppm, preventive spray on cucumber, read-out: Observed Efficacy (%)) of 77%. For the same compound, the pest or weed control at 0.0001 ppm (Phakopsora pachyrhizi; Phakopsora pachyrhizi, Conc. 0.0001 ppm, soybean, preventive, Table D5, read-out: Observed Efficacy (%)) was 37%, the pest or weed control at 0.001 ppm (Phakopsora pachyrhizi; Phakopsora pachyrhizi, Conc. 0.001 ppm, soybean, preventive, Table D5, read-out: Observed Efficacy (%)) was 50% and the pest or weed control at 0.01 ppm (Phakopsora pachyrhizi; Phakopsora pachyrhizi, Conc. 0.01 ppm, soybean, preventive, Table D5, read-out: Observed Efficacy (%)) was 61%. The pest or weed control at 1 ppm (Alternaria solani; Alternaria solani, single compound, 1 ppm, preventive, read-out: Observed Efficacy (%)) was 13%, the pest or weed control at 5 ppm (Alternaria solani; Alternaria solani, single compound, 5 ppm, preventive, read-out: Observed Efficacy (%)) was 17% and the pest or weed control at 20 ppm (Alternaria solani; Alternaria solani, single compound, 20 ppm, preventive, read-out: Observed Efficacy (%)) was 27%.

Compound N#Cc1sc2c(=O)c3ccccc3c(=O)c=2sc1C#N [Dithianon, dithianon] has a pest or weed control at 0.05 ppm (Septoria nodorum; [2]) of 11%, a pest or weed control at 0.1 ppm (Septoria nodorum; [3]) of 16% and a pest or weed control at 0.05 ppm (Botrytis cinerea; [4]) of 38%. The pest or weed control at 0.1 ppm (Botrytis cinerea; [5]) was 45%, the pest or weed control at 0.05 ppm (Pyricularia oryzae; [1]) was 34% and the pest or weed control at 0.1 ppm (Pyricularia oryzae; [1]) was 42%. For the same compound, the pest or weed control at 0.05 ppm (Erysiphe cichoracearum; [6]) was 11%, the pest or weed control at 0.1 ppm (Erysiphe cichoracearum; [7]) was 18% and the “Observed Efficacy (%)” value (Erysiphe cichoracearum; [8]) was 11%. The “Observed Efficacy (%)” value (Erysiphe cichoracearum; [9]) was 18%, the pest or weed control at 0.05 ppm (Phakopsora pachyrhizi; [10]) was 15% and the pest or weed control at 0.1 ppm (Phakopsora pachyrhizi; [11]) was 24%. For the same compound, the “Observed Efficacy (%)” value (Phakopsora pachyrhizi; [12]) was 15%, the “Observed Efficacy (%)” value (Phakopsora pachyrhizi; [13]) was 15% and the “Observed Efficacy (%)” value (Phakopsora pachyrhizi; [14]) was 24%. For the same compound, the “Observed Efficacy (%)” value (Phakopsora pachyrhizi; [15]) was 24%, the pest or weed control at 0.05 ppm (Alternaria solani; [16]) was 21% and the pest or weed control at 0.1 ppm (Alternaria solani; [17]) was 26%. For the same compound, the “Observed Efficacy (%)” value (Alternaria solani; [18]) was 21%, the “Observed Efficacy (%)” value (Alternaria solani; [19]) was 26% and the “Observed Efficacy (%)” value (Alternaria solani; [20]) was 21%. For the same compound, the “Observed Efficacy (%)” value (Alternaria solani; [21]) was 26%.

In the case of O=C1c2ccccc2C(=O)N1SC(Cl)(Cl)Cl [Folpet, folpet], the pest or weed control at 0.05 ppm (Septoria nodorum; [2]) is reported as 16%, the pest or weed control at 0.1 ppm (Septoria nodorum; [3]) is reported as 21% and the pest or weed control at 0.05 ppm (Botrytis cinerea; [4]) is reported as 24%. It also gave a pest or weed control at 0.1 ppm (Botrytis cinerea; [5]) of 38%, a pest or weed control at 0.05 ppm (Pyricularia oryzae; [1]) of 34% and a pest or weed control at 0.1 ppm (Pyricularia oryzae; [1]) of 39%. For the same compound, the pest or weed control at 0.05 ppm (Erysiphe cichoracearum; [6]) was 24%, the pest or weed control at 0.1 ppm (Erysiphe cichoracearum; [7]) was 32% and the “Observed Efficacy (%)” value (Erysiphe cichoracearum; [8]) was 24%. The “Observed Efficacy (%)” value (Erysiphe cichoracearum; [9]) was 32%, the pest or weed control at 0.05 ppm (Phakopsora pachyrhizi; [10]) was 5% and the pest or weed control at 0.1 ppm (Phakopsora pachyrhizi; [11]) was 12%. For the same compound, the “Observed Efficacy (%)” value (Phakopsora pachyrhizi; [12]) was 5%, the “Observed Efficacy (%)” value (Phakopsora pachyrhizi; [13]) was 5% and the “Observed Efficacy (%)” value (Phakopsora pachyrhizi; [14]) was 12%. The “Observed Efficacy (%)” value (Phakopsora pachyrhizi; [15]) was 12%, the pest or weed control at 0.05 ppm (Alternaria solani; [16]) was 12% and the pest or weed control at 0.1 ppm (Alternaria solani; [17]) was 16%. The pest or weed control at 0.05 ppm (Alternaria solani; [22]) was 12%, the pest or weed control at 0.1 ppm (Alternaria solani; [23]) was 16% and the “Observed Efficacy (%)” value (Alternaria solani; [24]) was 12%. For the same compound, the “Observed Efficacy (%)” value (Alternaria solani; [25]) was 16%, the “Observed Efficacy (%)” value (Alternaria solani; [19]) was 16% and the “Observed Efficacy (%)” value (Alternaria solani; [20]) was 12%. The “Observed Efficacy (%)” value (Alternaria solani; [21]) was 16%.

CNC(=O)/C(=N/OC)c1ccccc1Oc1ccccc1 [Metominostrobin, metominostrobin] showed a pest or weed control at 0.05 ppm (Septoria nodorum; [2]) of 6%, a pest or weed control at 0.1 ppm (Septoria nodorum; [3]) of 12% and a pest or weed control at 0.1 ppm (Botrytis cinerea; Table F5, Conc. 0.1 ppm, Botrytis cinerea in tomato, preventive, read-out: Observed Efficacy (%)) of 40%. For the same compound, the pest or weed control at 0.05 ppm (Pyricularia oryzae; [1]) was 17%, the pest or weed control at 0.1 ppm (Pyricularia oryzae; [1]) was 33% and the pest or weed control at 0.05 ppm (Erysiphe cichoracearum; [6]) was 14%. The pest or weed control at 0.1 ppm (Erysiphe cichoracearum; [7]) was 57%, the “Observed Efficacy (%)” value (Erysiphe cichoracearum; [8]) was 14% and the pest or weed control at 0.05 ppm (Phakopsora pachyrhizi; Phakopsora pachyrhizi, Conc. 0.05 ppm, soybean, preventive, Table D4, read-out: Observed Efficacy (%)) was 45%. The pest or weed control at 0.1 ppm (Phakopsora pachyrhizi; Phakopsora pachyrhizi, Conc. 0.1 ppm, soybean, preventive, Table D5, read-out: Observed Efficacy (%)) was 56%, the “Observed Efficacy (%)” value (Phakopsora pachyrhizi; [13]) was 45% and the pest or weed control at 0.05 ppm (Alternaria solani; [16]) was 26%. The pest or weed control at 0.1 ppm (Alternaria solani; [17]) was 31%, the pest or weed control at 0.05 ppm (Alternaria solani; [22]) was 26% and the pest or weed control at 0.1 ppm (Alternaria solani; [23]) was 31%. For the same compound, the “Observed Efficacy (%)” value (Alternaria solani; [25]) was 31%, the “Observed Efficacy (%)” value (Alternaria solani; [18]) was 26% and the “Observed Efficacy (%)” value (Alternaria solani; [19]) was 31%. For the same compound, the “Observed Efficacy (%)” value (Alternaria solani; [20]) was 26% and the “Observed Efficacy (%)” value (Alternaria solani; [21]) was 31%.

With CO/C=C(/C(=O)OC)c1ccccc1COc1cccc(C(F)(F)F)n1 [Picoxystrobin, picoxystrobin] the “Observed Efficacy (%)” value (Septoria nodorum; 0.05 ppm) was 12%, the “Observed Efficacy (%)” value (Septoria nodorum; 0.1 ppm) was 26% and the “Observed Efficacy (%)” value (Botrytis cinerea; Conc. 0.1 ppm, preventive spray on tomato, % control vs untreated) was 38%. The “Observed Efficacy” value (Pyricularia oryzae; Conc. 0.05 ppm) was 16%, the “Observed Efficacy” value (Pyricularia oryzae; Conc. 0.1 ppm) was 33% and the “Observed Efficacy (%)” value (Erysiphe cichoracearum; 0.05 ppm, cucumber, preventive) was 19%. For the same compound, the “Observed Efficacy (%)” value (Erysiphe cichoracearum; [8]) was 19%, the “Observed Efficacy (%)” value (Erysiphe cichoracearum; 0.1 ppm, cucumber, preventive) was 43% and the “Observed Efficacy (%)” value (Erysiphe cichoracearum; [9]) was 43%. For the same compound, the “Observed Efficacy (%)” value (Phakopsora pachyrhizi; 0.05 ppm, preventive spray on soybean) was 20%, the “Observed Efficacy (%)” value (Phakopsora pachyrhizi; 0.1 ppm, preventive spray on soybean) was 28% and the “Observed Efficacy (%)” value (Phakopsora pachyrhizi; [12]) was 20%. For the same compound, the “Observed Efficacy (%)” value (Phakopsora pachyrhizi; [13]) was 20%, the “Observed Efficacy (%)” value (Phakopsora pachyrhizi; [14]) was 28% and the “Observed Efficacy (%)” value (Phakopsora pachyrhizi; [15]) was 28%. The “Observed Efficacy (%)” value (Alternaria solani; [24]) was 23%, the “Observed Efficacy (%)” value (Alternaria solani; [25]) was 26% and the “Observed Efficacy (%)” value (Alternaria solani; [20]) was 23%. For the same compound, the “Observed Efficacy (%)” value (Alternaria solani; single compound, 0.05 ppm, preventive spray) was 23%, the “Observed Efficacy (%)” value (Alternaria solani; [21]) was 26% and the “Observed Efficacy (%)” value (Alternaria solani; single compound, 0.1 ppm, preventive spray) was 26%.
